Measurements: patent publication US4535089A, “Alkyloxazolylacetic acid derivative for the treatment of hyperlipidemia” (Tanabe Seiyaku Co., Ltd., priority 1982, dated 1985)

How the values were obtained:
[1] = test system: serum cholesterol; assay: Hypolipidemic activity: decrease in serum cholesterol; format: in vivo; details: 50 mg % in diet, one week, male SD rats
Description: (§1) A test compound (50 mg %) was added to a commercial diet, and male SD rats (body weight: 120-140 g, a group of 5 rats) were fed with the diet ad libitum for one week. After the experimental period, blood was collected from the tail vein of the rats under ether anesthesia. Then, liver was excised from the rats and the weight thereof was measured. On the other hand, serum cholesterol and serum triglyceride were measured according to the methods of Zak (Amer. J. Clin. Pathol., Vol. 24, page 1307(1954)) and Van Handel-Zilversmit (J. Lab. & Clin. Med., Vol. 50, page 152(1957)), respectively. Based on the results obtained above, the decrease (%) in serum cholesterol or triglyceride and increase (%) in liver weight were calculated by the following formulae: [formula]

[2] = test system: serum triglyceride; assay: Hypolipidemic activity: decrease in serum triglyceride; format: in vivo; details: 50 mg % in diet, one week, male SD rats
Description: as §1

[3] = test system: platelet aggregation; assay: Platelet aggregation-inhibiting activity in vitro (collagen, platelet-rich plasma); format: cell-based, male SD rats; details: final concentration 100 μg/ml, rat PRP, 37° C.
Description: (§2) Blood was collected from the abdominal aorta of male SD rats (body weight: 250-300 g) which were anesthetized with ether. Nine volumes of said blood were mixed with one volume of an aqueous 3.8% (w/v) trisodium citrate solution, and the mixture was centrifuged at 500×g for 5 minutes to give platelet-rich plasma (hereinafter referred to as "PRP") as the supernatant solution. The bottom layer was further centrifuged at 1000×g for 10 minutes to give platelet-poor plasma (hereinafter referred to as "PPP") as the supernatant solution. PRP was diluted with PPP so that the blood platelet count was 8-10×10^5 cells/mm^3.Then, a mixture of 200 μl of said diluted PRP and 25 μl of a test compound solution (final concentration: 100 μg/ml) was introduced into a glass cell of SIENCO aggregometer (Sienco Inc., Morrison, Colo. Model DP-247-D). After the mixture was stirred at 1100 rpm at 37° C. for 2 minutes, 25 μl of a collagen solution (prepared by Holmsen's method described in Biochim. Biophys. Acta, Vol. 186, page 254(1969)) was added thereto, and the percentage inhibition of platelet aggregation was calculated in accordance with the following formula from the degree of the platelet aggregation which was estimated by Born's method (Nature, 194, page 927(1962)). [formula]

[4] = test system: mice; assay: Acute oral toxicity in mice; format: in vivo; details: 1000 mg/kg oral, 7 days after administration
Excerpt: The compound (I) (R^2 =H) of the present invention can be used for pharmaceutical use in the form of either a free acid or a pharmaceutically acceptable salt thereof. Pharmaceutically acceptable salts of the compound (I) (R^2 =H) include, for example, alkali metal salts such as sodium and potassium salts; alkaline earth metal salts such as calcium and magnesium salts; salts thereof with amino acids such as lysine, ornithine, arginine and histidine salts; and ammonium salt. Such pharmaceutically acceptable salts may be prepared, for example, by neutralizing the free acid with a stoichiometrically equimolar amount of a base such as an alkali metal hydroxide, an alkaline earth metal hydroxide, ammonia or a basic amino acid. The compound (I) and a salt thereof can be administered either orally or parenterally. For oral administration, the compound (I) or a salt thereof may be used in the form of tablets, powder, capsules, granules and the like. Known medicinal excipients such as calcium carbonate, calcium phosphate, corn starch, potato starch, sugar, lactose, talc, magnesium stearate and so forth may be used in making these pharmaceutical preparations. Alternatively, the compound (I) or a salt thereof may be used for oral administration in the form of aqueous or oily suspensions, solutions, syrps or elixirs. […]

[5] = test system: platelet aggregation; assay: Platelet aggregation-inhibiting activity after oral administration (ex vivo); format: in vivo; details: Rattus norvegicus, 1 h, 100 mg/kg oral, blood collected one hour after administration, SD rats, read-out: Percentage inhibition of platelet aggregation (%)
Description: as §2, with “PRP was diluted with PPP so that the blood platelet count was 8-10×10^5 cells/mm^3.Then, a mixture of 200 μl of said diluted PRP and 25 μl of a test compound solution (final concentration: 100 μg/ml) was introduced into a glass cell of SIENCO aggregometer (Sienco Inc., Morrison, Colo. Model DP-247-D).” left out, “[formula]” left out
A test compound was suspended in a solution containing 0.25% of carboxymethylcellulose (sodium salt) and 0.01% of Tween 80, and the suspension was administered orally to make SD rats (a group of 4 rats). […] Thereafter, said blood was treated in the same manner as described in Experiment 2, and the percentage inhibition of platelet aggregation was calculated in accordance with the following formula: [formula]

[6] = test system: liver; assay: Increase in liver weight (hypolipidemic experiment); format: in vivo; details: 50 mg % in diet, one week, male SD rats
Description: as §1

Row | Structure (SMILES) | Decrease (%) in serum cholesterol [1] [%] | Decrease (%) in serum triglyceride [2] [%] | inhibition at 100 µg/mL [3] [%] | mortality [4] | inhibition at 100 mg/kg [5] [%] | increase (%) in liver weight [6] [%]
1 | CCCCCc1oc(-c2ccc(Cl)cc2)nc1CC(=O)O [2-[2-(4-chlorophenyl)-5-n-pentyl-4-oxazolyl]acetic acid] | 19 | 60 | – | – | – | –
2 | CCOC(=O)Cc1nc(-c2ccc(F)cc2)oc1C(C)C [ethyl 2-[2-(4-fluorophenyl)-5-isopropyl-4-oxazolyl]acetate] | 23 | 33 | ≥ 10 | – | – | –
3 | CCOC(=O)Cc1nc(-c2ccc(Cl)cc2)oc1C [ethyl 2-[2-(4-chlorophenyl)-5-methyl-4-oxazolyl]acetate] | 19 | 36 | – | no mouse dies | – | –
4 | CCCCCc1oc(-c2ccc(Cl)cc2)nc1CC(=O)OCC [ethyl 2-[2-(4-chlorophenyl)-5-n-pentyl-4-oxazolyl]acetate] | 15 | 52 | – | no mouse dies | – | –
5 | CC(C)Cc1oc(-c2ccc(F)cc2)nc1CC(=O)O [2-[2-(4-fluorophenyl)-5-isobutyl-4-oxazolyl]acetic acid] | 11 | 51 | – | – | – | –
6 | CCOC(=O)Cc1nc(-c2ccc(Cl)cc2)oc1CC(C)C [ethyl 2-[2-(4-chlorophenyl)-5-isobutyl-4-oxazolyl]acetate] | – | – | ≥ 10 | – | – | –
7 | CC(C)c1oc(-c2ccccc2)nc1CC(=O)O [2-(2-phenyl-5-isopropyl-4-oxazolyl)acetic acid] | – | – | ≥ 10 | – | 97 ± 2 | –
8 | CCOC(=O)C(C)(C)Oc1ccc(Cl)cc1 [Clofibrate, 2-(4-chlorophenoxy)-2-methylpropanoic acid ethyl ester, reference compound] | 15 | 16 | < 10 | – | 53 ± 19 | 12
9 | CCOC(=O)Cc1nc(-c2ccc(F)cc2)oc1CC(C)C [ethyl 2-[2-(4-fluorophenyl)-5-isobutyl-4-oxazolyl]acetate] | 13 | 66 | ≥ 10 | – | – | –
10 | Cc1oc(-c2ccc(Cl)cc2)nc1CC(=O)O [2-[2-(4-chlorophenyl)-5-methyl-4-oxazolyl]acetic acid] | 14 | 48 | – | – | – | –
11 | CCOC(=O)Cc1nc(-c2ccc(Cl)cc2)oc1C(C)C [ethyl 2-[2-(4-chlorophenyl)-5-isopropyl-4-oxazolyl]acetate] | 18 | 55 | ≥ 10 | – | – | –
12 | CC(C)c1oc(-c2ccc(Cl)cc2)nc1CC(=O)O [2-[2-(4-chlorophenyl)-5-isopropyl-4-oxazolyl]acetic acid] | 12 | 39 | ≥ 10 | – | – | –
13 | CC(C)c1oc(-c2ccc(F)cc2)nc1CC(=O)O [2-[2-(4-fluorophenyl)-5-isopropyl-4-oxazolyl]acetic acid] | 21 | 42 | ≥ 10 | – | – | –
